Assay results published in patent US20230099344A1, “COMPOUNDS AND METHODS FOR THE TARGETED DEGRADATION OF IRAK-4” (Arvinas Operations, Inc., priority 2021, published 2023).

What follows are molecules tested against T1, IRAK-4 (Homo sapiens, UniProt Q9NWZ3) (assay: IRAK-4 ELISA, PBMC degradation). Settings: treated overnight.
T1 sequence (Q9NWZ3 1-460): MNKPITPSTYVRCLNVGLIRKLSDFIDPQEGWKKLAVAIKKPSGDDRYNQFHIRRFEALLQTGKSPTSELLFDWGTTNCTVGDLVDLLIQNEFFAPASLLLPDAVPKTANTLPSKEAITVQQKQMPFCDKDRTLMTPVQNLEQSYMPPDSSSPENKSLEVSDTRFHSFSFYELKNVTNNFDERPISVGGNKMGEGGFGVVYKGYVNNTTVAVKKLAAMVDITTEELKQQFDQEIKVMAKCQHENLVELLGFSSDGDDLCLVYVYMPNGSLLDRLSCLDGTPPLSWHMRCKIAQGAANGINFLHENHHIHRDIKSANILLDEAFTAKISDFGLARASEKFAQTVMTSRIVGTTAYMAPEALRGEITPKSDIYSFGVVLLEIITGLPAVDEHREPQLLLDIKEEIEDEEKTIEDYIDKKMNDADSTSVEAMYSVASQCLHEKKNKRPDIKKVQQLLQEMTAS
Assay type: cell-based
Design: endogenous in cells; host or cells: PBMC
In short: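 Readout: IRAK-4 protein level in cell lysate, sandwich ELISA. Cells: OCI-Ly10 at 1×10^6/ml or PBMC at 2×10^6/ml, compound added same day, overnight incubation.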

SMILES | DC50 [nM] | Dmax [%] | PBMC DC90
CN(CC1(F)CN(c2ccc3c(c2)C(=O)N(C2CCC(=O)NC2=O)C3=O)C1)[C@H]1CC[C@H](n2cc3cc(NC(=O)c4cnn5cccnc45)c(OCC4CC4)cc3n2)CC1 (stereo partly drawn) [Example 350] | 1 to 5 | 70 to 80 | B (B represents a DC90 value ≥10.0 nM and <25.0 nM)
C[C@H](Oc1cc2nn(C3CCN(CC4(F)CN(c5ccc6c(c5)C(=O)N(C5CCC(=O)NC5=O)C6=O)C4)CC3)cc2cc1NC(=O)c1cnn2cccnc12)C1CC1 (stereo partly drawn) [Example 264] | 1 to 5 | 70 to 80 | B (B represents a DC90 value ≥10.0 nM and <25.0 nM)
O=C1CCC(N2C(=O)c3ccc(N4CC[C@H](N5CCC(n6cc7cc(NC(=O)c8cnn9cccnc89)c(OCC8CC8)cc7n6)CC5)C4)cc3C2=O)C(=O)N1 (stereo partly drawn) [Example 225] | 1 to 5 | 80 to 90 | B (B represents a DC90 value ≥10.0 nM and <25.0 nM)
CC(C)Oc1cc2c(cc1NC(=O)c1cnn3cccnc13)CN(C[C@@H](F)C1CN(CC3CCN(c4ccc5c(c4)CN(C4CCC(=O)NC4=O)C5=O)CC3)C1)C2=O (stereo partly drawn) [Example 17] | < 1 | 80 to 90 | A (A represents a DC90 value <10.0 nM)
O=C1CCC(N2C(=O)c3ccc(N4CC(F)(CN5CCC(n6cc7cc(NC(=O)c8cnn9cccnc89)c(OC8CC8)cc7n6)CC5)C4)cc3C2=O)C(=O)N1 (stereo not drawn) [Example 200] | 1 to 5 | ≥ 90 | A (A represents a DC90 value <10.0 nM)
COc1cc2c(cc1N1CC(F)(CN3CCC(n4cc5cc(NC(=O)c6cnn7cccnc67)c(OCC6CC6)cc5n4)CC3)C1)C(=O)N(C1CCC(=O)NC1=O)C2=O (stereo not drawn) [Example 244] | 1 to 5 | 80 to 90 | B (B represents a DC90 value ≥10.0 nM and <25.0 nM)
CC(C)Oc1nc2nn(C3CCN(CC4(F)CN(c5ccc6c(c5)C(=O)N(C5CCC(=O)NC5=O)C6=O)C4)CC3)cc2cc1NC(=O)c1cnn2cccnc12 (stereo not drawn) [Example 219] | 5 to 10 | 80 to 90 | C (C represents a DC90 value ≥25.0 nM and <50 nM)
CC(C)Oc1cc2c(cc1NC(=O)c1cnn3cccnc13)CN([C@H]1CC[C@H](OC3CCN(c4ccc5c(c4)C(=O)N(C4CCC(=O)NC4=O)C5=O)CC3)CC1)C2=O (stereo partly drawn) [Example 65] | 1 to 5 | ≥ 90 | A (A represents a DC90 value <10.0 nM)
COc1cc2nn(C3CCN(CC4(F)CN(c5ccc6c(c5)C(=O)N(C5CCC(=O)NC5=O)C6=O)C4)CC3)cc2cc1NC(=O)c1cnn2ccc(C3C[C@H]4C[C@@H]3CO4)nc12 (stereo partly drawn) [Example 238] | 1 to 5 | 70 to 80 | B (B represents a DC90 value ≥10.0 nM and <25.0 nM)
O=C1CCC(N2C(=O)c3ccc(N4CC(F)(CN5CCC(N6Cc7cc(NC(=O)c8cnn9cccnc89)c(N8CCOCC8)cc7C6=O)CC5)C4)cc3C2=O)C(=O)N1 (stereo not drawn) [Example 101] | 1 to 5 | 70 to 80 | B (B represents a DC90 value ≥10.0 nM and <25.0 nM)
CC1(N2CCC(n3cc4cc(NC(=O)c5cnn6cccnc56)c(OCC5CC5)cc4n3)CC2)CN(c2ccc3c(c2)C(=O)N(C2CCC(=O)NC2=O)C3=O)C1 (stereo not drawn) [Example 228] | 1 to 5 | 80 to 90 | C (C represents a DC90 value ≥25.0 nM and <50 nM)
CC(C)Oc1cc2nn(C3CCN(CC(F)(F)C4CN(c5ccc6c(c5)C(=O)N(C5CCC(=O)NC5=O)C6=O)C4)CC3)cc2cc1NC(=O)c1cnn2cccnc12 (stereo not drawn) [Example 147] | 1 to 5 | ≥ 90 | B (B represents a DC90 value ≥10.0 nM and <25.0 nM)
CC(C)Oc1cc2c(cc1NC(=O)c1cnn3cccnc13)CN([C@H]1CC[C@H](N3CCN(c4ccc5c(c4)CN(C4CCC(=O)NC4=O)C5=O)CC3)CC1)C2=O (stereo partly drawn) [Example 273, N-(2-((1r,4r)-4-(4-(2-(2,6-dioxopiperidin-3-yl)-1-oxoisoindolin-5-yl)piperazin-1-yl)cyclohexyl)-6-isopropoxy-1-oxoisoindolin-5-yl)pyrazolo[1,5-a]pyrimidine-3-carboxamide] | < 1 | ≥ 90 | A (A represents a DC90 value <10.0 nM)
COc1cc(N2CC(F)(CN3CCC(n4cc5cc(NC(=O)c6cnn7cccnc67)c(OC(C)C)cc5n4)CC3)C2)cc2c1C(=O)N(C1CCC(=O)NC1=O)C2=O (stereo not drawn) [Example 217] | < 1 | 80 to 90 | A (A represents a DC90 value <10.0 nM)
O=C1CCC(N2C(=O)c3ccc(N4CC(O)(CN5CCC(n6cc7cc(NC(=O)c8cnn9cccnc89)c(OCC8CC8)cc7n6)CC5)C4)cc3C2=O)C(=O)N1 (stereo not drawn) [Example 169] | < 1 | ≥ 90 | 122 nM

Results, then the molecule that gave them:

DC50 [nM] | Dmax [%] | PBMC DC90 | SMILES
< 1 | ≥ 90 | 2 nM | CC(C)Oc1cc2c(cc1NC(=O)c1cnn3cccnc13)CN(C1CCN(CCOCCOc3ccc4c(c3)CN(C3CCC(=O)NC3=O)C4=O)CC1)C2=O (stereo not drawn) [Example 2]
< 1 | ≥ 90 | A (A represents a DC90 value <10.0 nM) | O=C1CCC(N2C(=O)c3ccc(N4CC(CN5CCC(N6Cc7cc(NC(=O)c8cnn9cccnc89)c(OC8CC8)cc7C6=O)CC5)C4)cc3C2=O)C(=O)N1 (stereo not drawn) [Example 84]
< 1 | 70 to 80 | A (A represents a DC90 value <10.0 nM) | O=C1CCC(N2Cc3cc(N4CC(F)(CN5CCC(n6cc7cc(NC(=O)c8cnn9cccnc89)c(OC8CCC8)cc7n6)CC5)C4)ccc3C2=O)C(=O)N1 (stereo not drawn) [Example 214]
< 1 | ≥ 90 | A (A represents a DC90 value <10.0 nM) | O=C1CCC(N2C(=O)c3ccc(N4CC(CN5CCC(n6cc7cc(NC(=O)c8cnn9cccnc89)c(C8CC8)cc7n6)CC5)C4)cc3C2=O)C(=O)N1 (stereo not drawn) [Example 185]
< 1 | ≥ 90 | A (A represents a DC90 value <10.0 nM) | O=C1CCC(N2C(=O)c3ccc(N4CC(F)(CN5CCC(n6cc7cc(NC(=O)c8cnn9cccnc89)c(C(F)F)cc7n6)CC5)C4)cc3C2=O)C(=O)N1 (stereo not drawn) [Example 408, N-[6-(difluoromethyl)-2-[1-[[1-[2-(2,6-dioxo-3-piperidyl)-1,3-dioxo-isoindolin-5-yl]-3-fluoro-azetidin-3-yl]methyl]-4-piperidyl]indazol-5-yl]pyrazolo[1,5-a]pyrimidine-3-carboxamide]
< 1 | ≥ 90 | A (A represents a DC90 value <10.0 nM) | CC(C)Oc1cc2nn([C@H]3CC[C@H](NCC4(F)CN(c5ccc6c(c5)C(=O)N(C5CCC(=O)NC5=O)C6=O)C4)CC3)cc2cc1NC(=O)c1cnn2cccnc12 (stereo partly drawn) [Example 348]
< 1 | 80 to 90 | A (A represents a DC90 value <10.0 nM) | O=C1CCC(N2Cc3cc(N4CC(F)(CN5CCC(n6cc7cc(NC(=O)c8cnn9cccnc89)c(OCC8CC8)cc7n6)CC5)C4)c(F)cc3C2=O)C(=O)N1 (stereo not drawn) [Example 421]
< 1 | 80 to 90 | A (A represents a DC90 value <10.0 nM) | COC1(CN2CCC(n3cc4cc(NC(=O)c5cnn6cccnc56)c(OCC5CC5)cc4n3)CC2)CN(c2ccc3c(c2)C(=O)N(C2CCC(=O)NC2=O)C3=O)C1 (stereo not drawn) [Example 234]
< 1 | ≥ 90 | A (A represents a DC90 value <10.0 nM) | CC(C)Oc1cc2c(cc1NC(=O)c1cnn3cccnc13)CN(C1CCN(CC3CCC4(CC3)CN(c3ccc5c(c3)C(=O)N(C3CCC(=O)NC3=O)C5=O)C4)CC1)C2=O (stereo not drawn) [Example 81]
